Assay results reported in patent US6350760B1, “Substituted piperidines as melanocortin-4 receptor agonists” (Merck & Co., Inc., priority 1999, dated 2002).
Marks after values point to notes of the source that are not given here. One block for each compound: values may come before it.

How the values were obtained:
[1] = test system: animal feeding models (NPY, ob/ob, agouti, fasted); details: injected intracerebroventricularly (ICV) in rodents; cited from earlier work
[2] = test system: conscious rat model of reflexogenic erections; test: Rat ex copula assay, conscious rat model of reflexogenic erections; type: in vivo; details: for efficacy of reference drugs in conscious rat model of reflexogenic erections: positive reference controls; for penile erections, % Increase from Vehicle or Baseline: rats
Procedure: Sexually mature male Caesarian Derived Sprague Dawley (CD) rats (over 60 days old) are used with the suspensory ligament surgically removed to prevent retraction of the penis back into the penile sheath during the ex copula evaluations. Animals receive food and water ad lib and are kept on a normal light/dark cycle. Studies are conducted during the light cycle.
1) Conditioning to Supine Restraint for Ex Copula Reflex Tests. This conditioning takes ˜4 days. Day 1, the animals are placed in a darkened restrainer and left for 15-30 minutes. Day 2, the animals are restrained in a supine position in the restrainer for 15-30 minutes. Day 3, the animals are restrained in the supine position with the penile sheath retracted for 15-30 minutes. Day 4, the animals are restrained in the supine position with the penile sheath retracted until penile responses are observed. Some animals require additional days of conditioning before they are completely acclimated to the procedures; non-responders are removed from further evaluation. After any handling or evaluation animals are given a treat to ensure positive reinforcement.
2) Ex Copula Reflex Tests. Rats are gently restrained in a supine position with their anterior torso placed inside a cylinder of adequate size to allow for normal head and paw grooming. For a 400-500 gram rat, the diameter of the cylinder is approximately 8 cm. The lower torso and hind limbs are restrained with a non-adhesive material (vetrap). An additional piece of vetrap with a hole in it, through which the glans penis will be passed, is fastened over the animal to maintain the preputial sheath in a retracted position. Penile responses will be observed, typically termed ex copula genital reflex tests. Typically, a series of penile erections will occur spontaneously within a few minutes after sheath retraction. The types of normal reflexogenic erectile responses include elongation, engorgement, cup and flip. An elongation is classified as an extension of the penile body. Engorgement is a dilation of the glans penis. A cup is defined as an intense erection where the distal margin of the glans penis momentarily flares open to form a cup. A flip is a dorsiflexion of the penile body.
Baseline and or vehicle evaluations are conducted to determine how and if an animal will respond. Some animals have a long duration until the first response while others are non-responders altogether. During this baseline evaluation latency to first response, number and type of responses are recorded. The testing time frame is 15 minutes after the first response.
[…] All evaluations are videotaped and scored later. Data are collected and analyzed using paired 2 tailed t-tests to compared baseline and/or vehicle evaluations to drug treated evaluations for individual animals. Groups of a minimum of 4 animals are utilized to reduce variability.
Positive reference controls are included in each study to assure the validity of the study. Animals can be dosed by a number of routes of administration depending on the nature of the study to be performed. The routes of administration includes intravenous (IV), intraperitoneal (IP), subcutaneous (SC) and intracerebral ventricular (ICV).
In this non-random crossover model, rats were placed in the supine position with the preputial sheath retracted to initiate a reflex arc. The number of erections was counted in the 15 minute period following the first erection.

[3] = in vivo; cited from earlier work
[4] = test system: psychogenic erectile dysfunction; details: cited from earlier work
erectile dysfunction = details: cited from earlier work; for duration of effect / onset of action: after an oral dose, men; for proportion of men/patients with adequate response: oral, erectile dysfunction patients
human MC-2R [5] = molecular target: T1, human MC-2R (Homo sapiens, UniProt Q01718); test: Functional cell based cAMP assay; design: expressed in transfected cells; host or cells: L- or CHO-cells; details: @ 10 μM; cAMP relative to alpha-MSH defined as 100% agonist
T1 sequence (Q01718 whole entry): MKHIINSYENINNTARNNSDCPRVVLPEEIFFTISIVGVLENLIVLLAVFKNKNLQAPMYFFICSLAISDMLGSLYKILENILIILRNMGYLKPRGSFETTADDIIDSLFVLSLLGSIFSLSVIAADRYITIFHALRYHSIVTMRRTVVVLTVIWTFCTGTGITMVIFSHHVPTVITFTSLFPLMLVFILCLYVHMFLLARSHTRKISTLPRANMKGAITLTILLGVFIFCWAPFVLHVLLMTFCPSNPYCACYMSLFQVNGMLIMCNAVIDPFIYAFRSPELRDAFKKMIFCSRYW
Excerpt: (§1) B. Functional assay. Functional cell based assays were developed to discriminate melanocortin receptor agonists from antagonists.
Cells (for example, CHO- or L-cells or other eukaryotic cells) expressing a human melanocortin receptor (see e.g. Yang-YK; Ollmann-MM; Wilson-BD; Dickinson-C; Yamada-T; Barsh-GS; Gantz-I; Mol-Endocrinol. 1997 Mar; 11(3): 274-80) were dissociated from tissue culture flasks by rinsing with Ca and Mg free phosphate buffered saline (14190-136, Life Technologies, Gaithersburg, Md.) and detached following 5 minutes incubation at 37° C. with enzyme free dissociation buffer (S-014-B, Specialty Media, Lavellette, N.J.). Cells were collected by centrifugation and resuspended in Earle's Balanced Salt Solution (14015-069, Life Technologies, Gaithersburg, Md.) with additions of 10 mM HEPES pH 7.5, 5 mM MgCl2, 1 mM glutamine and 1 mg/ml bovine serum albumin. Cells were counted and diluted to 1 to 5×10^6/ml. […]
cAMP was measured in an aliquot of the cell lysate with the Amersham (Arlington Heights, Ill.) cAMP detection assay (RPA556). […]
(§2) IC50's were determined in a competition binding assay with ^125I-NDP-alpha-MSH as ligand using crude membranes prepared from cell lines expressing the appropriate MC-R. Functional EC50's were determined by application of compound to intact cells followed by direct measurement of cAMP as described in the Biological Assays section above.

human MC-5R [6] = molecular target: T2, human MC-5R (Homo sapiens, UniProt P33032); test: Membrane binding assay, competition with 125I-NDP-alpha-MSH; details: human receptor; average of at least 3 determinations
T2 construct: expressed in transfected cells; host or cells: CHO- or L-cells or other eukaryotic cells
T2 sequence (P33032 whole entry): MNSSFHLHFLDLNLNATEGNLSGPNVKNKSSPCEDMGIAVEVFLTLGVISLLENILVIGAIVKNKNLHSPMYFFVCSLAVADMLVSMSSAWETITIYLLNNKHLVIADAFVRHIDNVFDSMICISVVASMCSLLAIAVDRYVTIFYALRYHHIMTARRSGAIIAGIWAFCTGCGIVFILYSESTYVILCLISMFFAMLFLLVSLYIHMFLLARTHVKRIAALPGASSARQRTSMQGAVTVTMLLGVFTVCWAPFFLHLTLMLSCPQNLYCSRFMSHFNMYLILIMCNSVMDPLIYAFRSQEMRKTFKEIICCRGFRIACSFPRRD
Procedure: (§3) A. Binding Assay. The membrane binding assay was used to identify competitive inhibitors of ^125I-NDP-alpha-MSH binding to cloned human MCRs expressed in L- or CHO-cells.
(§4) Cell lines expressing melanocortin receptors were grown in T-180 flasks containing selective medium of the composition: 1 L Dulbecco's modified Eagles Medium (DMEM) with 4.5 g L-glucose, 25 mM Hepes, without sodium pyruvate, (Gibco/BRl); 100 ml 10% heat-inactivated fetal bovine serum (Sigma); 10 ml 10,000 unit/ml penicillin & 10,000 ug/ml streptomycin (Gibco/BRl); 10 ml 200 mM L-glutamine (Gibco/BRl); 1 mg/ml Geneticin (G418) (Gibco/BRl). The cells were grown at 37° C. with CO2 and humidity control until the desired cell density and cell number was obtained.
(§5) The medium was poured off and 10 mls/monolayer of enzyme-free dissociation media (Specialty Media Inc.) was added. The cells were incubated at 37° C. for 10 minutes or until cells sloughed off when flask was banged against hand.
(§6) The cells were harvested into 200 ml centrifuge tubes and spun at 1000 rpm, 4° C., for 10 min. […]
as §2

human MC-2R [7] = molecular target: T1, human MC-2R; test: as above; design: expressed in transfected cells; host or cells: L- or CHO-cells (membranes); details: human receptor; average of at least 3 determinations
Procedure: as §3, §4, §5, §6, §2

human MC-3R = molecular target: T3, human MC-3R (Homo sapiens, UniProt P41968); test: Functional cell based cAMP assay; details: cAMP relative to alpha-MSH at 10 μM defined as 100% agonist
T3 construct: expressed in transfected cells; host or cells: CHO- or L-cells or other eukaryotic cells
T3 sequence (P41968 whole entry): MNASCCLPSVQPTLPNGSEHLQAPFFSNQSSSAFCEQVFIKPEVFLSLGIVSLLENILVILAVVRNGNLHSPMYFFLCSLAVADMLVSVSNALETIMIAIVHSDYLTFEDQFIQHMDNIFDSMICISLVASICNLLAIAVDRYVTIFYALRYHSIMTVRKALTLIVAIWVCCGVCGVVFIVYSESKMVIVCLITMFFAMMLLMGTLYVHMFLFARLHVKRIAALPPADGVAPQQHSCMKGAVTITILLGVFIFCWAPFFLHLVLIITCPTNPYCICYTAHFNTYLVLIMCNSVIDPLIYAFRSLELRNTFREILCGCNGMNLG
Excerpt: as §1
(§7) Cells (for example, CHO- or L-cells or other eukaryotic cells) expressing a human melanocortin receptor (see e.g. Yang-YK; Ollmann-MM; Wilson-BD; Dickinson-C; Yamada-T; Barsh-GS; Gantz-I; Mol-Endocrinol. 1997 Mar; 11(3): 274-80) were dissociated from tissue culture flasks by rinsing with Ca and Mg free phosphate buffered saline (14190-136, Life Technologies, Gaithersburg, Md.) and detached following 5 minutes incubation at 37° C. with enzyme free dissociation buffer (S-014-B, Specialty Media, Lavellette, N.J.). Cells were collected by centrifugation and resuspended in Earle's Balanced Salt Solution (14015-069, Life Technologies, Gaithersburg, Md.) with additions of 10 mM HEPES pH 7.5, 5 mM MgCl2, 1 mM glutamine and 1 mg/ml bovine serum albumin. Cells were counted and diluted to 1 to 5×10^6/ml. The phosphodiesterase inhibitor 3-isobutyl-1-methylxanthine was added to cells to 0.6 mM.
(§8) Test compounds were diluted in dimethylsulfoxide (DMSO) (10^−5 to 10^−10 M) and 0.1 volume of compound solution was added to 0.9 volumes of cell suspension; the final DMSO concentration was 1%. After room temperature incubation for 45 min., cells were lysed by incubation at 100° C. for 5 min. to release accumulated cAMP.
(§9) cAMP was measured in an aliquot of the cell lysate with the Amersham (Arlington Heights, Ill.) cAMP detection assay (RPA556). The amount of cAMP production which resulted from an unknown compound was compared to that amount of cAMP produced in response to alpha-MSH at 10 μM which was defined as a 100% agonist.
as §2

human MC-5R [8] = molecular target: T2, human MC-5R; test: Functional cell based cAMP assay
Excerpt: as §1, §7, §8, §9, §2

human MC-1R = molecular target: T4, human MC-1R (Homo sapiens, UniProt Q01726); test: Functional cell based cAMP assay; details: cAMP relative to alpha-MSH at 10 μM defined as 100% agonist
T4 construct: expressed in transfected cells; host or cells: CHO- or L-cells or other eukaryotic cells
T4 sequence (Q01726 whole entry): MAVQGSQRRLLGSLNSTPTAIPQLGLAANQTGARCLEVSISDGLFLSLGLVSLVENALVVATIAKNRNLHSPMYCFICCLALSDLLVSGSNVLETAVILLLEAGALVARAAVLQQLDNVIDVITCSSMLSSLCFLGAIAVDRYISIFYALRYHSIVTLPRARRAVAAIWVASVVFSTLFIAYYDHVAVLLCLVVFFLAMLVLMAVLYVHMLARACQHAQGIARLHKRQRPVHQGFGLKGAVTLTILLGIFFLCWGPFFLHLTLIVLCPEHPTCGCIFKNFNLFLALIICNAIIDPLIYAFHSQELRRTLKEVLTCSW
Excerpt: as §1, §7, §8, §9, §2

Compound: SHU-9119
effect on food intake [1]: reverses this effect and can induce hyperphagia

Compound: CN1CCc2cccc3c2[C@H]1Cc1ccc(O)c(O)c1-3 [apomorphine]
efficacy of reference drugs in conscious rat model of reflexogenic erections [2]: effective

Compound: Ac-Nle-c[Asp-His-DPhe-Arg-Trp-Lys]-NH2 [MT-II]
absorption into the systemic circulation by the oral route [3]: not absorbed into the systemic circulation
effect on food intake [1]: reduces food intake
adverse reactions observed ([4]; in vivo): nausea, flushing, loss of appetite, stretching, and yawning
response rate ([4]; injected intramuscularly or subcutaneously to males with psychogenic erectile dysfunction): 75%
duration of action ([4]; men): approximately 2.5 hours
time to onset of erection ([4]; men): 10 to 20 min

Compound: CCCc1nn(C)c2c(=O)[nH]c(-c3cc(S(=O)(=O)N4CCN(C)CC4)ccc3OCC)nc12 [sildenafil]
efficacy of reference drugs in conscious rat model of reflexogenic erections [2]: effective
duration of effect (erectile dysfunction): about 4 hours
onset of action (erectile dysfunction): 30 to 60 min
adverse effects associated with clinical use (erectile dysfunction; clinical use): headache, flushing, dyspepsia, and “abnormal vision
proportion of men/patients with adequate response (erectile dysfunction): about 70%

Compound: Cc1ccc(N(CC2=NCCN2)c2cccc(O)c2)cc1 [phentolamine]
duration of effect (erectile dysfunction): 2 h
onset of action (erectile dysfunction): 5 to 30 min
proportion of men/patients with adequate response (erectile dysfunction): 35-40%

Functional Activity, agonist efficacy, MC-2R (human MC-2R [5]): 0% @ 10 μM
IC50 (human MC-5R [6]): 230 nM
IC50 (human MC-2R [7]): > 10000 nM
Functional Activity, agonist efficacy, MC-3R (human MC-3R): 29%
Functional Activity, agonist efficacy, MC-5R (human MC-5R [8]; cAMP relative to alpha-MSH at 10 μM defined as 100% agonist): 58%
EC50 (human MC-5R [8]; human receptor, cAMP, average of at least 3 determinations): 530 nM
Functional Activity, agonist efficacy, MC-1R (human MC-1R): 84%
Compound: O=C(N[C@H](Cc1ccc(Cl)cc1)C(=O)N1CCC(Cn2cncn2)(C2CCCCC2)CC1)[C@H]1Cc2ccccc2CN1 [Example 2]
number of erections in conscious rat model of reflexogenic erections ([2]; administered by the intravenous (IV) route or by the oral (PO) route): effective in significantly increasing the number of erections
penile erections, % Increase from Vehicle or Baseline ([2]; 0.3 mg/kg IV, placed supine 60 min after dosing, P = 0.05): 15* %
penile erections, % Increase from Vehicle or Baseline ([2]; 1.0 mg/kg IV, placed supine 0 min after dosing, P = 0.05): 31%
penile erections, % Increase from Vehicle or Baseline ([2]; 1.0 mg/kg IV, placed supine 60 min after dosing, P = 0.05): 35%
penile erections, % Increase from Vehicle or Baseline ([2]; 5.0 mg/kg IV, placed supine 60 min after dosing, P = 0.01): 50** %
penile erections, % Increase from Vehicle or Baseline ([2]; 10 mg/kg IV, placed supine 0 min after dosing, P = 0.01): 45%
penile erections, % Increase from Vehicle or Baseline ([2]; 10 mg/kg IV, placed supine 60 min after dosing, P = 0.01): 38%
penile erections, % Increase from Vehicle or Baseline ([2]; 20 mg/kg PO, placed supine 60 min after dosing, P = 0.01): 24** %
penile erections, % Increase from Vehicle or Baseline ([2]; 20 μG ICV, placed supine 0 min after dosing, P = 0.05): 41* %
